The target in one assay is T1, LPA3 (Homo sapiens, UniProt Q9UBY5).
T1 sequence (Q9UBY5 1-353): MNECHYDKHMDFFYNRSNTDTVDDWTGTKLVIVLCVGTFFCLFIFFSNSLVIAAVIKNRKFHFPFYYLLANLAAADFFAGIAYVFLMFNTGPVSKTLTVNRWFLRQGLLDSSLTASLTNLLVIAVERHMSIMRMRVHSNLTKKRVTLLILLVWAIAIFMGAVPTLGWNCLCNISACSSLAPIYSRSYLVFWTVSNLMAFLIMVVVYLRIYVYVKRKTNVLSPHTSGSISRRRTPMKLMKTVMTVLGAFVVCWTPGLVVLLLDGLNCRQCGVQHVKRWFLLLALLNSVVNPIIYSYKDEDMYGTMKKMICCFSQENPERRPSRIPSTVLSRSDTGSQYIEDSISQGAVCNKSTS
The assay can be described thus: Calcium flux assay using FLIPR, LPA3 antagonist activity. The class given is cell-based. How it is done: (§1) Calcium Flux Assay Using Fluorometric Imaging Plate Reader (FLIPR)
(§2) After incubation, both the cell and “assay” plates were brought to the FLIPR and 20 μL of the diluted compounds were transferred to the cell plates by the FLIPR. Compound addition was monitored by FLIPR to detect any agonist activity of the compounds. Plates were then incubated for 30 minutes at RT protected from light. After the incubation, plates were returned to the FLIPR and 20 μL of 4.5× concentrated agonist was added to the cell plates. During the assay, fluorescence readings were taken simultaneously from all 384 wells of the cell plate every 1.5 seconds. Five readings were taken to establish a stable baseline, then 20 μL of sample was rapidly (30 μL/sec) and simultaneously added to each well of the cell plate. The fluorescence was continuously monitored before, during and after sample addition for a total elapsed time of 100 seconds. Responses (increase in peak fluorescence) in each well following agonist addition was determined. The initial fluorescence reading from each well, prior to ligand stimulation, was used as zero baseline value for the data from that well. The responses were expressed as % inhibition of the buffer control.

The target of assay [1] is human recombinant LPA1 Lysophospholipid receptor (Homo sapiens, UniProt Q92633). The assay can be described thus: Calcium flux assay using FLIPR, LPA1 antagonist activity. The class given is cell-based. As to conditions: for IC50: ChemiScreen calcium-optimized stable cell line, inhibition of agonist-induced calcium flux. How it is done: as §1
Cell Culture Conditions: The ChemiScreen Calcium-optimized stable cell line containing the human recombinant LPA1 Lysophospholipid receptor was purchased from Chemicon International, Inc./Millipore. The cells were cultured in DMEM-high glucose supplemented with 10% fetal bovine serum, 2 mM glutamine, 100 U/mL penicillin/100 μg/mL streptomycin, 1× non-essential amino acids, 10 mM HEPES and 0.25 mg/mL Geneticin. Cells were harvested with trypsin-EDTA and counted using ViaCount reagent. The cell suspension volume was adjusted to 2.0×10^5 cells/mL with complete growth media. Aliquots of 50 μL were dispensed into 384 well black/clear tissue culture treated plates (BD) and the microplates were placed in a 37° C. incubator overnight. The following day plates were used in the assay.
Dye Loading and Assay: Loading Buffer (FLIPR Calcium-4, Molecular Devices) was prepared by dissolving the contents of one bottle into 100 mL Hank's Balanced Salt Solution containing 20 mM HEPES and 2.5 mM probenecid. Plates were loaded onto Biotek plate washer and growth media was removed and replaced with 20 μL of Hank's Balanced Salt Solution containing 20 mM HEPES and 2.5 mM probenecid, followed by 25 μL of Loading Buffer. The plates were then incubated for 30 minutes at 37° C.
During the incubation, test compounds were prepared by adding 90 μL of HBSS/20 mM HEPES/0.1% BSA buffer to 2 μL of serially diluted compounds. To prepare serial dilutions, 10 mM stocks of compounds were prepared in 100% DMSO. The compound dilution plate was set up as follows: well #1 received 29 μL of stock compound and 31 μL DMSO; wells 2-10 received 40 μL of DMSO; mixed and transferred 20 μL of solution from well #1 into well #2; continued with 1:3 serial dilutions out 10 steps; transferred 2 μL of diluted compound into duplicate wells of 384 well “assay plate” and then added the 90 μL of buffer.
as §2
Background: Calcium flux is commonly read through the fluorescence of an indicator in the cells.

human recombinant LPA1 Lysophospholipid receptor, sequence (Q92633 whole entry): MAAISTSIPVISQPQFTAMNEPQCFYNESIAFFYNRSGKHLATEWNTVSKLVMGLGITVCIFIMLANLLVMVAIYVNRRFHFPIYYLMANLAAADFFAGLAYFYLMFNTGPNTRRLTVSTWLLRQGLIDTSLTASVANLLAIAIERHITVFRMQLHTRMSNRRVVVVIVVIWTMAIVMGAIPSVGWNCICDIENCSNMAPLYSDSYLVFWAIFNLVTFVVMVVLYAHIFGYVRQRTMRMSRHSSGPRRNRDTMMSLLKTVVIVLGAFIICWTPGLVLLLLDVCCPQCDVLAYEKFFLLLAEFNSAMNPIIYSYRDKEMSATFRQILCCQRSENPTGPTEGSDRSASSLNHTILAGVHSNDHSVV

As to `COc1ccc(C(=O)/C(=N\C2CCCC2)n2ncc(C#N)c2N)c(F)c1` [Example 5, (E)-5-Amino-1-(1-(cyclopentylimino)-2-(2-fluoro-4-methoxyphenyl)-2-oxoethyl)-1H-pyrazole-4-carbonitrile], the inhibition (commonly the percentage by which the read-out fell short of the control) at 30 µM was below 5% on LPA3 and 99.8% in assay [1]. Moreover, in assay [1], the IC50 (usually the point on the concentration scale where inhibition reaches its midpoint) was determined as 74 nM.
Consider `COc1cc(OCc2ccccc2)ccc1C(=O)/C(=N\C1CCCC1)n1ncc(C#N)c1N` [Example 11, (E)-5-Amino-1-(2-(4-benzyloxy-2-methoxyphenyl)-1-(cyclopentylimino)-2-oxoethyl)-1H-pyrazole-4-carbonitrile], for which the results for the inhibition at 30 µM (at LPA3; in assay [1]) were 23% and 48%, respectively.
For the molecule `COc1cc(C(=O)/C(=N\C2CCCC2)n2ncc(C#N)c2N)cc(OC)c1OC` [Example 12, (E)-5-Amino-1-(1-(cyclopentylimino)-2-(3,4,5-trimethoxyphenyl)-2-oxoethyl)-1H-pyrazole-4-carbonitrile], the inhibition at 30 µM at LPA3 is 14%. For the same molecule, the inhibition at 5 µM in assay [1] (@ 5 μM) was 13%.
In the case of `N#Cc1cnn(/C(=N/C2CCCC2)C(=O)c2ccc(Br)cc2)c1N` [Example 3, (E)-5-Amino-1-(1-(cyclopentylimino)-2-(4-bromophenyl)-2-oxoethyl)-1H-pyrazole-4-carbonitrile], the inhibition at 30 µM on LPA3 is below 1%. Moreover, in assay [1], the inhibition at 30 µM was determined as 96% and the concentration for half-maximal inhibition (IC50) was 2940 nM.
Take `COc1ccc(C(=O)/C(=N\C2CCCCC2)n2ncc(C#N)c2N)c(OC)c1` [Example 9, (E)-5-Amino-1-(1-(cyclohexylimino)-2-(2,4-dimethoxyphenyl)-2-oxoethyl)-1H-pyrazole-4-carbonitrile]: the inhibition at 30 µM at LPA3 amounted to 29%. For the same molecule, in assay [1], the inhibition at 30 µM turned out to be 84.9% and the IC50 amounted to 510 nM.
Regarding `COc1cc(F)ccc1C(=O)/C(=N\C1CCCC1)n1ncc(C#N)c1N` [Example 4, (E)-5-Amino-1-(1-(cyclopentylimino)-2-(4-fluoro-2-methoxyphenyl)-2-oxoethyl)-1H-pyrazole-4-carbonitrile], the inhibition at 30 µM at LPA3 was 3%; in assay [1] it was 49%.
Turning to `COc1cc(OC)c(C(=O)/C(=N\C2CCCC2)n2ncc(C#N)c2N)cc1OC` [Example 6, (E)-5-Amino-1-(1-(cyclopentylimino)-2-(2,4,5-trimethoxyphenyl)-2-oxoethyl)-1H-pyrazole-4-carbonitrile], the inhibition at 30 µM on LPA3 came to 7.5%. The inhibition at 10 µM in assay [1] (@ 10 μM) was determined as 79.2%. The 50% inhibitory concentration (IC50) in assay [1] worked out at 3360 nM.
Take `COc1ccc(C(=O)/C(=N\C2CCCC2)n2ncc(C#N)c2N)c(OC)c1` [Example 1, (E)-5-Amino-1-(1-(cyclopentylimino)-2-(2,4-dimethoxyphenyl)-2-oxoethyl)-1H-pyrazole-4-carbonitrile]: at LPA3, the inhibition at 30 µM worked out at 22%. Besides, in assay [1], the inhibition at 30 µM is 98% and the IC50 turned out to be 79.8 nM.
For `CCc1ccc(C(=O)/C(=N\C2CCCC2)n2ncc(C#N)c2N)cc1` [Example 2, (E)-5-Amino-1-(1-(cyclopentylimino)-2-(4-ethylphenyl)-2-oxoethyl)-1H-pyrazole-4-carbonitrile] the same measures were 13%, 100% and 586 nM.
With `COc1cc2c(cc1C(=O)/C(=N\C1CCCC1)n1ncc(C#N)c1N)CCC2` [Example 8, (E)-5-Amino-1-(1-(cyclopentylimino)-2-(6-methoxy-2,3-dihydro-1H-inden-5-yl)-2-oxoethyl)-1H-pyrazole-4-carbonitrile], the inhibition at 30 µM at LPA3 was determined as 19.1%; in assay [1], 78.4%. Besides, in assay [1], the IC50 turned out to be 825 nM.
For the molecule `COc1cc2ccccc2cc1C(=O)/C(=N\C1CCCC1)n1ncc(C#N)c1N` [Example 7, (E)-5-Amino-1-(1-(cyclopentylimino)-2-(3-methoxynaphthalen-2-yl)-2-oxoethyl)-1H-pyrazole-4-carbonitrile], the inhibition at 30 µM at LPA3 came to 2%. Further, in assay [1], the inhibition at 30 µM was 77.5% and the IC50 is 806 nM.
For `COc1ccc(C(=O)/C(=N\C(C)C)n2ncc(C#N)c2N)c(OC)c1` [Example 10, (E)-5-Amino-1-(2-(2,4-dimethoxyphenyl)-1-(iso-propylimino)-2-oxoethyl)-1H-pyrazole-4-carbonitrile] the same measures were 21%, 88.2% and 111 nM.

For the origin of these results see patent US9169215B2, “LPAR—substituted cyanopyrazole compounds” (Hoffmann-La Roche Inc., priority 2012, dated 2015).
